This note sets out measurements from patent US11833160B2, “Ursodeoxycholic acid derivatives as HDAC inhibitors for the treatment of polycystic diseases” (UNIVERSIDAD DEL PAIS VASCO/EUSKAL HERRIKO UNIBERTSITATEA, priority 2017, dated 2023).

As usually defined, the IC50 is the concentration that gives 50% inhibition.

What all share (format): biochemical
Holding throughout (conditions): 10-dose, 3-fold serial dilution, triplicate

One assay concerns the target T1, human HDAC10 (Homo sapiens, UniProt Q969S8).
T1 sequence (Q969S8 1-631): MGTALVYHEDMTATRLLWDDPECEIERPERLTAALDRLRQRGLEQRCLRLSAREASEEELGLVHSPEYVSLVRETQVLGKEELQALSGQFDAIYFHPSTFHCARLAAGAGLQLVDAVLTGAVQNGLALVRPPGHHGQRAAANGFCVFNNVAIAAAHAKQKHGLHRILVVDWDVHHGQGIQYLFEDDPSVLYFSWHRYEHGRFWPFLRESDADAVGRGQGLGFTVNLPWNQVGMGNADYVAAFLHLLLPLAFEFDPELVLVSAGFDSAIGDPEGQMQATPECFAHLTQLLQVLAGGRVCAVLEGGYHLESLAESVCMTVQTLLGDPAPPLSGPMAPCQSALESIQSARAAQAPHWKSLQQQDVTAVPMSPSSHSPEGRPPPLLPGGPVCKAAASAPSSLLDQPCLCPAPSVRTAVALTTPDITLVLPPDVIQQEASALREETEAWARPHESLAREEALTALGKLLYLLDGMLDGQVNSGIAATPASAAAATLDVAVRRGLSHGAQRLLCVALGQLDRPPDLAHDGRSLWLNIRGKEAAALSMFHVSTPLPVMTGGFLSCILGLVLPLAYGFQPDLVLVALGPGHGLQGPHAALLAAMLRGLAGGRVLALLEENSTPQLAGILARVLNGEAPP
As to the kind of experiment: HDAC10 enzymatic activity assay (fluorogenic peptide). The protocol: (§1) Peptide substrates: all HDAC assays were performed using acetylated peptide substrates labeled with 7-amino-4-methylcoumarin (AMC): • Substrate for isoforms HDAC1, 2, 3, 6, 10, 11, and HeLa nuclear extract assays: acetylated fluorogenic peptide from p53 residues 379-382 (RHKKAc). • Substrate for isoforms HDAC4, 5, 7, 9: fluorogenic Boc-L-Lys (s-trifluoroacetyl)-AMC. • Substrate for HDAC8 assays: acetylated fluorogenic peptide from p53 residues 379-382 (RHKAcKAc).
(§2) 50 μl of peptide substrate (see “peptide substrates” section above) and an optimal concentration of the corresponding enzyme (see “enzymes” section above) in the assay buffer at a final DMSO concentration of 1% were incubated in the presence of gradient concentrations of inhibitors (10-dose IC50 mode with 3-fold serial dilution) at 30° C. for 2 hours. The reactions were carried out in a 96-well microplate for fluorometry in a 50 μl reaction volume. After the deacetylation reaction, Fluor-de-Lys-Developer (BioMol Cat. #KI-105) was added to each well to digest the deacetylated substrate, thereby producing the fluorescent signal. The reaction was carried out for 45 minutes at 30° C. with 5% CO2; the fluorescent signal was then measured using an excitation wavelength of 360 nm and an emission wavelength of 460 nm in a microplate-reading fluorometer (GeminiXS, Molecular Devices, Sunnyvale, CA). […]

In the next assay the target is T2, human HDAC7 (Homo sapiens, UniProt Q8WUI4).
T2 construct: amino acids 518 end with GST N-terminal tag, MW=78 kDa; GST (N); purchased BioMol, Hamburg, Germany; host or cells: baculovirus expression system
T2 sequence (Q8WUI4 479-952 limits assumed): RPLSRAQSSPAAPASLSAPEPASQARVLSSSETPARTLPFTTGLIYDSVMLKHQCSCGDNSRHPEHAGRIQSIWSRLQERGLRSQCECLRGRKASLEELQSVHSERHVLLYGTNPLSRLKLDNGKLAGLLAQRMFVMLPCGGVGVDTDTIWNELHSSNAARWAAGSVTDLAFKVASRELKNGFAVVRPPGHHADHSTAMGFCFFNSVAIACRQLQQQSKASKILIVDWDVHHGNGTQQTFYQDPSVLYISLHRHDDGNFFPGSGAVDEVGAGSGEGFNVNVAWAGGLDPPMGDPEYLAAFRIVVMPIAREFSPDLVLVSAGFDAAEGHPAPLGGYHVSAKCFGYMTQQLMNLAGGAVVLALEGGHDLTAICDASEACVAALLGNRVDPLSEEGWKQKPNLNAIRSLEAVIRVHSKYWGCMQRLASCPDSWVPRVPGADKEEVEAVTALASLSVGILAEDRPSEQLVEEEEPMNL
Briefly: HDAC7 enzymatic activity assay (fluorogenic peptide). The protocol:
as §1
(§3) 50 μl of peptide substrate (see “peptide substrates” section above) and an optimal concentration of the corresponding enzyme (see “enzymes” section above) in the assay buffer at a final DMSO concentration of 1% were incubated in the presence of gradient concentrations of inhibitors (10-dose IC50 mode with 3-fold serial dilution) at 30° C. for 2 hours. The reactions were carried out in a 96-well microplate for fluorometry in a 50 μl reaction volume. After the deacetylation reaction, Fluor-de-Lys-Developer (BioMol Cat. #KI-105) was added to each well to digest the deacetylated substrate, thereby producing the fluorescent signal. The reaction was carried out for 45 minutes at 30° C. with 5% CO2; the fluorescent signal was then measured using an excitation wavelength of 360 nm and an emission wavelength of 460 nm in a microplate-reading fluorometer (GeminiXS, Molecular Devices, Sunnyvale, CA). A curve of deacetylated standard (Biomol, Cat. #KI-142; made from 100 μM with 1:2 dilution and 10 doses, 6 μl) allowed the conversion of the fluorescent signal into micromoles of deacetylated product. All experiments were performed in triplicate. The IC50s were calculated by fitting the experimental data to dose-response curve. DMSO was used as negative control; Trichostatin A (Biomol Cat. #GR-309) was used as positive control inhibitor.
(§4) Enzymatic activity assays were carried out in 11 HDAC enzymes, including HDAC6.

In a further assay the target is T3, human HDAC11 (Homo sapiens, UniProt Q96DB2).
T3 construct: GST (N); purchased BioMol SE-560; host or cells: baculovirus expression system
T3 sequence (Q96DB2 1-347): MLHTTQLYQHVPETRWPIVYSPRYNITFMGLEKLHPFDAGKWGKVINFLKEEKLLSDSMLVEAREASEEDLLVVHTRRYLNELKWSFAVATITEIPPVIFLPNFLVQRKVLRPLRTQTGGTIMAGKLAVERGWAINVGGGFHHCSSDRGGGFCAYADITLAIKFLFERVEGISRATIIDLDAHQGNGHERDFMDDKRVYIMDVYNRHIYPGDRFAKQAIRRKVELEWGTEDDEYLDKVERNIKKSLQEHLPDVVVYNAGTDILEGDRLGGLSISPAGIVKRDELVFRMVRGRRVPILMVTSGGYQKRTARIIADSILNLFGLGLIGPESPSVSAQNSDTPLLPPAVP
As to the kind of experiment: HDAC11 enzymatic activity assay (fluorogenic peptide). The protocol:
as §1, §2

Another assay has as its target human HDAC9 (Homo sapiens, UniProt Q9UKV0). As to the kind of experiment: HDAC9 enzymatic activity assay (fluorogenic peptide). The protocol: as §1, §2
The target of the next assay is T4, human HDAC8 (Homo sapiens, UniProt Q9BY41).
T4 construct: purchased BioMol SE-145; host or cells: E. coli
T4 sequence (Q9BY41 1-377): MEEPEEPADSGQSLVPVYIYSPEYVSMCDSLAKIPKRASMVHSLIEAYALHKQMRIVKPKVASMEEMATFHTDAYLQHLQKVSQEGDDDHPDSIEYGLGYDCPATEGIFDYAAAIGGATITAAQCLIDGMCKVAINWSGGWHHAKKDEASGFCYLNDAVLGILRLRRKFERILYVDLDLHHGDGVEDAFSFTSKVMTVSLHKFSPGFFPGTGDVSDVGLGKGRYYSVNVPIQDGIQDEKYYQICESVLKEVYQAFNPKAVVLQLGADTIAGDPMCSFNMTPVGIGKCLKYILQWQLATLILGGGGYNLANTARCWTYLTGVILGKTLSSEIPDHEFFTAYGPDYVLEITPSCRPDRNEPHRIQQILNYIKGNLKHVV
As to the kind of experiment: HDAC8 enzymatic activity assay (fluorogenic peptide). The protocol: as §1, §3, §4

The next assay deals with T5, human HDAC5 (Homo sapiens, UniProt Q9UQL6).
T5 construct: GST (N); purchased BioMol, Hamburg, Germany; host or cells: baculovirus / Sf9 cells
As to the kind of experiment: HDAC5 enzymatic activity assay (fluorogenic peptide). The protocol: as §1, §2

human HDAC9, sequence (Q9UKV0 604-1066 isoform Q9UKV0-5): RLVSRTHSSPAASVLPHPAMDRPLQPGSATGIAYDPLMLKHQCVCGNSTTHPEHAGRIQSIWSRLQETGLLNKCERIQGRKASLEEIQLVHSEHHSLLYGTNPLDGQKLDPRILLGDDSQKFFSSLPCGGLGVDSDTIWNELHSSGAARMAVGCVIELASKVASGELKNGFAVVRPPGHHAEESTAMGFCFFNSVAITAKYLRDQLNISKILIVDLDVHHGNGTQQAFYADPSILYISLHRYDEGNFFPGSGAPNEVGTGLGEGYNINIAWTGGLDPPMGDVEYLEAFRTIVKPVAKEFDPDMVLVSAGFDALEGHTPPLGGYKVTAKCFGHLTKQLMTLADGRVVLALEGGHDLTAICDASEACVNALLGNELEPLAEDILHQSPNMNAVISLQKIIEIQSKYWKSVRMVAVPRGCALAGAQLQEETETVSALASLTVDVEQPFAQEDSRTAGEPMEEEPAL
T5 sequence (Q9UQL6 1-1123 isoform Q9UQL6-3): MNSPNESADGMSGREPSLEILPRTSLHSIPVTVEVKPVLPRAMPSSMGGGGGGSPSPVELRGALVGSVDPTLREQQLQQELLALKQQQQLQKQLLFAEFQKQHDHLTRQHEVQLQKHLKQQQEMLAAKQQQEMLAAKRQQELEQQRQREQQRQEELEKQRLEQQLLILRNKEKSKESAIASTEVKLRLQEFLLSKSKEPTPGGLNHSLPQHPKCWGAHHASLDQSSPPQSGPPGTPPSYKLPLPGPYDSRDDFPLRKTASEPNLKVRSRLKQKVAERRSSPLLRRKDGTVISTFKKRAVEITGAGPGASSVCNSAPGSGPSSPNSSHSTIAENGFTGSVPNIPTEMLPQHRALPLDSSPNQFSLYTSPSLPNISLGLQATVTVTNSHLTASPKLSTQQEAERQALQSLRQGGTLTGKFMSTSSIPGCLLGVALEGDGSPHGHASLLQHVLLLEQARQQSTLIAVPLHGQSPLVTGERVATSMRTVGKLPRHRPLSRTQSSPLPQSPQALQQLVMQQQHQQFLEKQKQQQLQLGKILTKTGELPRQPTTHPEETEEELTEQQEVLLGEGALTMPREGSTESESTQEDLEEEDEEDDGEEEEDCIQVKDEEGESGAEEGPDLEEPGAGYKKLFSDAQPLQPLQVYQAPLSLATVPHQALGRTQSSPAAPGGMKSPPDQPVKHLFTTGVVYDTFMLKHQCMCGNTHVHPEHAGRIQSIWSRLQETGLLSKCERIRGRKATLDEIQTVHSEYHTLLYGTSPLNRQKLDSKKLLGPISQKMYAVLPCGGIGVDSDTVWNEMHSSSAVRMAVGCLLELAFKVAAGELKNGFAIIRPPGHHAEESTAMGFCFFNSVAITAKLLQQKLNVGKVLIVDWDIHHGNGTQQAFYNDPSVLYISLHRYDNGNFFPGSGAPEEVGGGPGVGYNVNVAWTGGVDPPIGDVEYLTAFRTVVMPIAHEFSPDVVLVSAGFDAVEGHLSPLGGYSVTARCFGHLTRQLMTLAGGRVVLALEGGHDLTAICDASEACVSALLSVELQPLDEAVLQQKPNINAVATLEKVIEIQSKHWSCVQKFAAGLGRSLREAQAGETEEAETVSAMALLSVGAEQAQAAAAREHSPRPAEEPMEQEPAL

For `C[C@H](CCC(=O)NCC(=O)NCc1ccc(C(=O)NO)cc1)[C@H]1CC[C@H]2[C@@H]3[C@@H](O)C[C@@H]4C[C@H](O)CC[C@]4(C)[C@H]3CC[C@]12C` [Ib, 4-((2-((R)-4 ((3R,5S,7S,8R,9S,10S,13R,14S,17R)-3,7-dihydroxy-10,13-dimethylhexadecahydro-1H-cyclopenta[a]phenanthren-17-yl)pentanamide)acetamido)methyl)-N-hydroxybenzamide], the IC50 was found to be 21.8 µM against human HDAC10; 17.6 µM against human HDAC7; 2.56 µM at human HDAC11; 11.6 µM against human HDAC9; 0.615 µM at human HDAC8.

With `C[C@H](CCC(=O)NCc1ccc(C(=O)NO)cc1)[C@H]1CC[C@H]2[C@@H]3[C@@H](O)C[C@@H]4C[C@H](O)CC[C@]4(C)[C@H]3CC[C@]12C` [Compound Ia], the IC50 against human HDAC10 is 24.5 µM; at human HDAC5, 14.1 µM; against human HDAC7, 7.47 µM; on human HDAC11, 2.33 µM; against human HDAC9, 13.4 µM; against human HDAC8, 0.894 µM.
